Measured values: patent US20240174718A1, “RYANODINE RECEPTOR INHIBITOR COMPOUNDS AND METHODS RELATING THERETO” (Vanderbilt University, priority 2022, published 2024)
“And” between values parts separate entries of the source, which are not always exact repeats. Identical values can stand only once.

Legend:
[1] = target: T1, RyR2 (Sus scrofa, UniProt A0A5G2R1W3); experiment: [3H]ryanodine ligand binding assay in cardiac SR vesicles; set-up: species or system porcine; details: relative to vehicle (DMSO)
T1 construct: isolated SR vesicles derived from porcine cardiac muscle; from tissue; host or cells: porcine heart (cardiac sarcoplasmic reticulum vesicles)
T1 sequence (A0A5G2R1W3 20-4900): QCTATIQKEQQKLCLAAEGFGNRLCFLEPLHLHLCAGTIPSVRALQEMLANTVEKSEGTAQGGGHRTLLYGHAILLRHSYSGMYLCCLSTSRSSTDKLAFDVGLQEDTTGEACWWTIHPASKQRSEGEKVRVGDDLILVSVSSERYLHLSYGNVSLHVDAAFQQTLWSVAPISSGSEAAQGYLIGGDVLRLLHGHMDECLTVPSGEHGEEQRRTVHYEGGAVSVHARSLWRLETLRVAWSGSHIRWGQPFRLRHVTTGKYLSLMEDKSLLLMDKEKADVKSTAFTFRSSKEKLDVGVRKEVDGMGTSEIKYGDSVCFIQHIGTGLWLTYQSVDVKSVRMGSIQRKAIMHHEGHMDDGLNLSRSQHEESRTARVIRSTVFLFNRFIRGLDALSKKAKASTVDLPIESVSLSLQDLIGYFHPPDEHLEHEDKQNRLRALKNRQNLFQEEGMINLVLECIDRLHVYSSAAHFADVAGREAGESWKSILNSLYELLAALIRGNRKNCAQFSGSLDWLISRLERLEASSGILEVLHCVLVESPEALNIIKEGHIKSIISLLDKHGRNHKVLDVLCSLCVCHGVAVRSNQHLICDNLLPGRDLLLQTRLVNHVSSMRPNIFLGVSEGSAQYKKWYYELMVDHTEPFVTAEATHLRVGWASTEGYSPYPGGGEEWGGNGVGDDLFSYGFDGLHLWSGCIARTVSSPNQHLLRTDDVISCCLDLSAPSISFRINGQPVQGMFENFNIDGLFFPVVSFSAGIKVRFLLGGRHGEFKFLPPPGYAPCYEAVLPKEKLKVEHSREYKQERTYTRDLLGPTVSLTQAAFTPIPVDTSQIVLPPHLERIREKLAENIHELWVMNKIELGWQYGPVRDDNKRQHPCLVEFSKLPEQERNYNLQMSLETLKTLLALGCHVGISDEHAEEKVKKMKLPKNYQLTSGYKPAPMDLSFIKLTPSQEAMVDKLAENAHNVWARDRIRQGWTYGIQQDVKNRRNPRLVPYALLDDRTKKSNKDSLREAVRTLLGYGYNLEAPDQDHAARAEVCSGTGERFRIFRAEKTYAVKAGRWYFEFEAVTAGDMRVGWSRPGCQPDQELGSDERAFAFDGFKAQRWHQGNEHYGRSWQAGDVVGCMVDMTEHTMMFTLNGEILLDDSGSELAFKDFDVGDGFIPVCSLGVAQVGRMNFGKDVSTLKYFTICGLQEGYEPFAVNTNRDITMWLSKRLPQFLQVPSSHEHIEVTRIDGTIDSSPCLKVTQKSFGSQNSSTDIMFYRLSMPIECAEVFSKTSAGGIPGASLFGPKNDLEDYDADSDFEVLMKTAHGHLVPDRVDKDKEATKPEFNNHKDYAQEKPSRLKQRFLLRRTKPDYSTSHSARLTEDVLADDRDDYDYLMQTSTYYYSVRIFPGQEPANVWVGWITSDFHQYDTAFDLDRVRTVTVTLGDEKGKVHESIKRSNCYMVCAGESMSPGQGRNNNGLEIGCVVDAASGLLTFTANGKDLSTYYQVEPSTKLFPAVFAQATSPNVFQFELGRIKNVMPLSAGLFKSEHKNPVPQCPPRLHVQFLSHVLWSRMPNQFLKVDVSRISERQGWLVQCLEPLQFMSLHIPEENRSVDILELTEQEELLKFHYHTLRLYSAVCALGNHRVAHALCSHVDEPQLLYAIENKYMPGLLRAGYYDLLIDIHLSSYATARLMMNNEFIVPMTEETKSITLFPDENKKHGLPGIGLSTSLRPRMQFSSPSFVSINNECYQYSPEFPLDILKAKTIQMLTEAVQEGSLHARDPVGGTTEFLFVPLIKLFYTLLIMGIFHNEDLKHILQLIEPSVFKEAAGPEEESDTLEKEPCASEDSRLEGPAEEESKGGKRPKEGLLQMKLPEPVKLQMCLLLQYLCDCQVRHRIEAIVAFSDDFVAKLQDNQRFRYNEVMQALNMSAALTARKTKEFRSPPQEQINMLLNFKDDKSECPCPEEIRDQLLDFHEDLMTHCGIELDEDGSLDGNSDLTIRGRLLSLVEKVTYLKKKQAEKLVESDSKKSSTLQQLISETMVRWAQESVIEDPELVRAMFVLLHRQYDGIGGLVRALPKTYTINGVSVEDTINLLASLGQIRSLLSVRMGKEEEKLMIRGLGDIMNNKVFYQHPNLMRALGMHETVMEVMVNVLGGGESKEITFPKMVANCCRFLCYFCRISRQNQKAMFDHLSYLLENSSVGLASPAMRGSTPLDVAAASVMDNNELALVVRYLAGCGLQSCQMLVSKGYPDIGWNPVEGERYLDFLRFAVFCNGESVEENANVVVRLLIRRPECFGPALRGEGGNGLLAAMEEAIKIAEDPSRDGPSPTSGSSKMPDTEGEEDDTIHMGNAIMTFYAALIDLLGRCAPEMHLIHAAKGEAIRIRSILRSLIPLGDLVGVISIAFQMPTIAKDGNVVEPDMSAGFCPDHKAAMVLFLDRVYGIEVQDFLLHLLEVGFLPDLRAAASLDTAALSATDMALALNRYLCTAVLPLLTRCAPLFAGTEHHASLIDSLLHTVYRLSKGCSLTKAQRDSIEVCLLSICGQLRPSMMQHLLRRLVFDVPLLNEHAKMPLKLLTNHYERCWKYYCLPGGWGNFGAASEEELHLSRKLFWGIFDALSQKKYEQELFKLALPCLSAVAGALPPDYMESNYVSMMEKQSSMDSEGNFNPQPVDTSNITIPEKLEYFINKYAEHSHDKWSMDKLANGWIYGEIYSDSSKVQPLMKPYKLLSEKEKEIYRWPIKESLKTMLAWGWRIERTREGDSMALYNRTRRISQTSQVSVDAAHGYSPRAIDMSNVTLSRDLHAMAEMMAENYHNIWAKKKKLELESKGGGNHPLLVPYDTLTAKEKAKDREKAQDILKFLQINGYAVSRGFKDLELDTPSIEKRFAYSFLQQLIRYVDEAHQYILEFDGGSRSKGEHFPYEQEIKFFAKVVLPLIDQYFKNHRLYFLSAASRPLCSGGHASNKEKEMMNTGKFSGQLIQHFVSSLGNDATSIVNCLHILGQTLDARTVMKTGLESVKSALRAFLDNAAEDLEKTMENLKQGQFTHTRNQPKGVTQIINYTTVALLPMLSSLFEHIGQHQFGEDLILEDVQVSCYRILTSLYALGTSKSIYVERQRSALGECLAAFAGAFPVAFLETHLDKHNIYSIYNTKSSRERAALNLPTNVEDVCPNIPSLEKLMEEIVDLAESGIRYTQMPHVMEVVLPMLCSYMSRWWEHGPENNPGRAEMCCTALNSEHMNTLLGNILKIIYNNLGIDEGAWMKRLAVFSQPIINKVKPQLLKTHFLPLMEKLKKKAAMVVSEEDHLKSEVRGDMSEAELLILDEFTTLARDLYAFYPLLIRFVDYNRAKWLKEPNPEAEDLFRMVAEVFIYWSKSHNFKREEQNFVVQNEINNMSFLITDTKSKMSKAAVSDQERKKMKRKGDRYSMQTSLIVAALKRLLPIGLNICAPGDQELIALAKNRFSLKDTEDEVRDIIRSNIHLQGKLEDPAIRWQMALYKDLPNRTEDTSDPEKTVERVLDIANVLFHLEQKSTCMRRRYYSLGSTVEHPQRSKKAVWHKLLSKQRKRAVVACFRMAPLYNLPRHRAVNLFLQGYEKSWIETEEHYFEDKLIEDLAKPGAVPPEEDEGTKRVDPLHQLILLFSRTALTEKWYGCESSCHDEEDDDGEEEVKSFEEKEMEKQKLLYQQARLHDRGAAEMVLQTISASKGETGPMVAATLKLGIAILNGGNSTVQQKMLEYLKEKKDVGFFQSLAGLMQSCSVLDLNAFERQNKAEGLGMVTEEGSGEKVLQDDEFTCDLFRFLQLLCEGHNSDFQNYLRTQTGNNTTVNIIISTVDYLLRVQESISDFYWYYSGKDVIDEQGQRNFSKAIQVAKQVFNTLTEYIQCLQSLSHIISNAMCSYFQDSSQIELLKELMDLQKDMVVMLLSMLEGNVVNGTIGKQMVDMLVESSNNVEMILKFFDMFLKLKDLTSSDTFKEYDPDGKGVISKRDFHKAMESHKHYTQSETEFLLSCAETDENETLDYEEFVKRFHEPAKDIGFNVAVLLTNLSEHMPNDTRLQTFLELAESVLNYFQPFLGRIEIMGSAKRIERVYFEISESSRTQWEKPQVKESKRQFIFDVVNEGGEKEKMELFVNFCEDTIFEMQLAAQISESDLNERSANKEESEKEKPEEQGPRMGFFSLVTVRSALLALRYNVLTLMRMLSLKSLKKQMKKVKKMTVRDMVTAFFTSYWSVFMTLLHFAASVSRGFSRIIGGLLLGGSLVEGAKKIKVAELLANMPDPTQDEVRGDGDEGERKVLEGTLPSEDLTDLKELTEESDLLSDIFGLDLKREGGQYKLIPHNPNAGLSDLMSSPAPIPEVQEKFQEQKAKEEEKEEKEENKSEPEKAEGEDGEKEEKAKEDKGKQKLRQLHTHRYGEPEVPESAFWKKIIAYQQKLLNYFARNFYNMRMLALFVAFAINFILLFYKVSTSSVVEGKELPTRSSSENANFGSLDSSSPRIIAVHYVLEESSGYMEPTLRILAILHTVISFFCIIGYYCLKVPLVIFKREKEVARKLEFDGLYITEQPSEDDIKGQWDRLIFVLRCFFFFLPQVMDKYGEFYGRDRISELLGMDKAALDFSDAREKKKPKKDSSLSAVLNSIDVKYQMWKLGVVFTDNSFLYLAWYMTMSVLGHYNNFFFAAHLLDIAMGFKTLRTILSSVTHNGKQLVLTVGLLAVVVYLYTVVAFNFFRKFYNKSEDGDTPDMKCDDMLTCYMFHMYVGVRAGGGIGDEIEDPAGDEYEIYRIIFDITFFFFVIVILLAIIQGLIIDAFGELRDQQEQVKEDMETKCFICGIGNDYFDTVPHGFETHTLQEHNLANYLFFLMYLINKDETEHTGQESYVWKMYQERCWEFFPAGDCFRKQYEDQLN
Procedure: RyR2 activity was quantified by the fraction of [^3H]ryanodine bound to RyR2. […] Data are shown as mean±SD (n=6).
[^3H]ryanodine ligand binding assay—[^3H]ryanodine, [9,21-3H(N)] (56 Ci/mmol) was obtained from PerkinElmer. Porcine cardiac SR vesicles were isolated as previously described (Fruen et al., 2000) and incubated with, 200 nM CaM binding peptide, 0.1 μM CaCl2, 20 mM PIPES, 150 mM KCl, 5 mM GSH, 0.1 mg/mL BSA, 1 μg/mL aprotininin, lug/mL leupeptin, and 1 μM DTT for 30 min at 37° C. […] In 96-well plates, cardiac SR membranes (CSR, 3 mg/mL) were pre-incubated with 1% v/v ent-B1 (to yield the indicated drug concentrations) for 30 min, at 22° C., in a solution containing 150 mM KCl, 5 mM GSH, 1 μg/mL Aprotinin/Leupeptin, 1 mM EGTA, and 23 μM or 1.62 mM CaCl2 (100 nM or 30 μM free Ca^2+, respectively as determined by MaxChelator), 0.1 mg/mL BSA, and 20 mM K-PIPES (pH 7.0). Non-specific [^3H]ryanodine binding to SR was assessed by addition of 15 μM non-radioactive ryanodine. Maximal [^3H]ryanodine binding was assessed by addition of 5 mM adenylyl-imidodiphosphate (AMP-PNP), supplemented with 20 mM caffeine. […] Binding of [^3H]ryanodine (7.5 nM) was determined following a 3 h incubation at 37° C. and filtration through grade GF/B glass microfiber filters (Brandel Inc., Gaithersburg, MD, US) using a M96T-Brandel Harvester. […]

[2] = Plasma stability ex vivo; assay type: in vitro ADME; details: mouse; murine plasma, 37° C., two hours; read-out: parent compound remaining in plasma
Procedure: FIGS. 11(A-B) show in vivo pharmacokinetics in mice for a compound of the present invention. […] N=3 mice. Plasma collected serially at 0.167, 0.333. 0.5, 1, 3, and 8 hours post-administration. […] Individual data points (grey) shown alongside mean values with connecting lines.
Plasma stability experiments—Drug-free mouse plasma was preincubated in a 96-well polypropylene plate for 30 minutes on a microplate shaker at 37° C. prior to the addition of ent-B1 (final concentration 1900 ng/mL). Drug was added to individual wells (n=3 per compound), mixed thoroughly, and 50 μL of plasma was removed at 0, 15, 30, 45 60, 90, and 120 minutes to evaluate compound stability in mouse plasma at 37° C. Samples removed at each time point were transferred to a 96-well polypropylene plate containing 300 μL of ice-cold acetonitrile containing internal standard (ent-verticilide-d12; 100 ng/mL). Samples were mixed multiple times with a pipette to ensure precipitation of plasma proteins and the plate was covered with an adhesive film to prevent solvent evaporation. […] Peak area ratios of the analyte and internal standard for each sample were analyzed by liquid chromatography coupled to tandem mass spectrometry (LC-MS/MS) and normalized to the area ratio for time point 0 (baseline) to calculate the percent of ent-B1 remaining at each time point. […]

In the case of `CCCCC[C@@H]1OC(=O)[C@@H](C)N(C)C(=O)[C@H](CCCCC)OC(=O)[C@@H](C)N(C)C(=O)[C@H](CCCCC)OC(=O)[C@@H](C)N(C)C1=O` (single isomer, unassigned) [ent-B1], the IC50 [1] is reported as 1.9 µM and 1.93 µM and the remaining at 2 h, 1900 ng/mL [2] is reported as ~95%.
